This note sets out measurements from patent US8455649B2, “Insecticidal substituted azinyl derivatives” (Dow AgroSciences, LLC, priority 2007, dated 2013).

For assay [1], the system named is Beet Armyworm (Spodoptera exigua). In words: Insecticidal diet-surface test for beet armyworm. Type of assay: in vivo. The note with it: 120 h, read-out: LAPHEG AVG % Mortality (50 μg/cm^2). The procedure: (§1) The compounds identified in Table 1 were tested against beet armyworm and corn earworm as follows:
(§2) Insecticidal Test for Corn Earworm (Helicoverpa zea) and Beet Armyworm (Spodoptera exigua).
(§3) To prepare test solution, the test compound was formulated at 2000 ppm solution as 4 mg/2 mL of 9 acetone:1 tap water. 50 μL of the 2000 ppm (equivalent to 50 μg/cm^2 dose on diet surface area) test solution was pipetted upon the surface of 1 mL of lepidopteran diet (Southland Multi-Species Lepidopteran Diet) contained in each of eight wells per insect species (one well=1 replication). A second-instar corn earworm and beet armyworm was placed upon the treated diet in each well once the solvent had air-dried. Trays containing the treated diet and larvae were covered and then held in a growth chamber at 25° C., 50-55% RH, and 16 hr light:8 hr dark for 5 days. Observation were conducted 5 days after treatment and infestation. The number of dead insects of 8 per species per treatment was then determined and the results are given in Table 2 as a percent control at a dose of […].

In assay [2] the test system is Corn Earworm (Helicoverpa zea). In words: Insecticidal diet-surface test for corn earworm. The following applies: 120 h, read-out: HELIZE AVG % Mortality (50 μg/cm^2). It is filed as in vivo. Here is the method:
as §1, §2, §3

Setting [3] is: second-instar larvae on treated diet, 50 μg/cm^2 on diet surface, 5 days after treatment, 8 insects per treatment.

Read-outs that look alike come from different tables or passages of the source.

With `O=C(Nc1ccc(C(F)(F)F)c(F)c1)Nc1nc(OCC(F)(F)F)cc(OCC(F)(F)F)n1` [Compound 78], the mortality at 50 µg/cm2 in assay [1] (setting [3]) and in assay [2] (setting [3]) was 100% throughout.
`O=C(Nc1ccc(C(F)(F)F)cc1)Nc1nc(OCC(F)F)cc(OCC(F)F)n1` [Compound 2]: the mortality at 50 µg/cm2 in assay [1] (setting [3]) and in assay [2] (setting [3]) was 100% throughout.
As to `O=C(Nc1ccc(OC(F)(F)F)cc1)Nc1cc(C(F)(F)F)cc(OCC(F)(F)F)n1` [Compound 163], the mortality at 50 µg/cm2 in assay [1] (setting [3]) and in assay [2] (setting [3]) was 100% each time.
As to `COCN(C(=O)Nc1nc(OCC(F)(F)F)cc(OCC(F)(F)F)n1)c1ccc(C(F)(F)F)nc1` [Compound 91], the mortality at 50 µg/cm2 in assay [1] (setting [3]) and in assay [2] (setting [3]) was 100% in each case.
Regarding `O=C(Nc1ccc(OC(F)(F)C(F)F)cc1)Nc1nc(OCC(F)(F)F)cc(OCC(F)(F)F)n1` [Compound 14], the mortality at 50 µg/cm2 in assay [1] (setting [3]) and in assay [2] (setting [3]) was 100% each time.
As for `CN(C(=O)Nc1nc(OCC(F)(F)F)cc(OCC(F)(F)F)n1)c1ccc(Cl)nc1` [Compound 48], the mortality at 50 µg/cm2 in assay [1] (setting [3]) and in assay [2] (setting [3]) was 100% throughout.
Regarding `Cc1c(OCC(F)(F)F)nc(NC(=O)Nc2ccc(Br)cc2)nc1OCC(F)(F)F` [Compound 139], the mortality at 50 µg/cm2 in assay [1] (setting [3]) and in assay [2] (setting [3]) was 88% each time.
For the compound `CCOCN(C(=O)N(COCc1ccccc1)c1nc(OCC(F)(F)F)cc(OCC(F)(F)F)n1)c1ccc(Br)cc1` [Compound 67], the mortality at 50 µg/cm2 in assay [1] (setting [3]) and in assay [2] (setting [3]) was 100% each time.
As to `O=C(Nc1nc(OCC(F)(F)F)cc(OCC(F)(F)F)n1)Nc1c(Cl)cc(Br)cc1Cl` [Compound 180], the mortality at 50 µg/cm2 in assay [1] (setting [3]) and in assay [2] (setting [3]) was 100% throughout.
As to `CCc1cc(Br)ccc1N(C)C(=O)Nc1nc(OCC(F)(F)F)cc(OCC(F)(F)F)n1` [Compound 157], the mortality at 50 µg/cm2 in assay [1] (setting [3]) and in assay [2] (setting [3]) was 100% throughout.
For `O=C(Nc1ccc(Br)cc1)N(COCc1ccccc1)c1nc(OCC(F)(F)F)cc(OCC(F)(F)F)n1` [Compound 63], the mortality at 50 µg/cm2 in assay [1] (setting [3]) and in assay [2] (setting [3]) was 100% in each case.
For `CN(C(=O)Nc1nc(OCC(F)(F)F)cc(OCC(F)(F)F)n1)c1ccc(Br)cn1` [Compound 123], the mortality at 50 µg/cm2 in assay [1] (setting [3]) and in assay [2] (setting [3]) was 100% each time.
As to `O=C(Nc1ccc(OC(F)(F)F)cc1)Nc1nc(OCC(F)(F)F)c(Cl)c(OCC(F)(F)F)n1` [Compound 136], the mortality at 50 µg/cm2 in assay [1] (setting [3]) and in assay [2] (setting [3]) was 100% throughout.
Consider `CC(C)(C)COCN(C(=O)N(COCc1ccccc1)c1nc(OCC(F)(F)F)cc(OCC(F)(F)F)n1)c1ccc(C(F)(F)F)cc1` [Compound 51], for which the values for the mortality at 50 µg/cm2 in assay [1] (setting [3]) and in assay [2] (setting [3]) were 100% and 0%, respectively.
The matching figures for `O=C(Nc1ccc(C(F)(F)C(F)(F)F)cc1)Nc1nc(OCC(F)(F)F)cc(OCC(F)(F)F)n1` [Compound 151]: 100% and 100%.
On the same counts, the results for `O=C(NNc1ccc(Cl)cc1)Nc1nc(OCC(F)(F)F)cc(OCC(F)(F)F)n1` [Compound 9] are 100% and 88%.
Turning to `O=C(Nc1ccc(OC(F)(F)F)cc1)Nc1cc(OCC(F)(F)F)nc(OCC(F)(F)F)n1` [Compound 115], the mortality at 50 µg/cm2 is 38% in assay [1] (setting [3]) and 75% in assay [2] (setting [3]).
Take `N#CCN(C(=O)Nc1nc(OCC(F)(F)F)cc(OCC(F)(F)F)n1)c1ccc(OC(F)(F)F)cc1` [Compound 77]: the mortality at 50 µg/cm2 in assay [1] (setting [3]) and in assay [2] (setting [3]) was 100% each time.
For `O=C(Nc1nc(OCC(F)(F)F)cc(OCC(F)(F)F)n1)N(CCF)c1ccc(OC(F)(F)F)cc1` [Compound 95], the mortality at 50 µg/cm2 in assay [1] (setting [3]) and in assay [2] (setting [3]) was 100% each time.
Take `CCNCCNc1cc(OCC(F)(F)F)nc(NC(=O)Nc2ccc(C(F)(F)F)cc2)n1` [Compound 98]: the mortality at 50 µg/cm2 in assay [1] (setting [3]) and in assay [2] (setting [3]) was 100% each time.
Regarding `CN(C(=O)Nc1nc(OCC(F)(F)F)cc(OCC(F)(F)F)n1)c1ccc(F)cc1` [Compound 86], the mortality at 50 µg/cm2 in assay [1] (setting [3]) and in assay [2] (setting [3]) was 100% in each case.
Consider `O=C(Nc1ccc(C(F)(F)F)cc1)Nc1nc(OCC(F)(F)F)c(Cl)c(OCC(F)(F)F)n1` [Compound 145], for which the mortality at 50 µg/cm2 in assay [1] (setting [3]) stood at 100%; in assay [2] (setting [3]), 0%.
On the same counts, the results for `CN(C(=S)Nc1nc(OCC(F)(F)F)cc(OCC(F)(F)F)n1)c1ccc(Br)cc1` [Compound 132] are 100% and 100%.
The matching figures for `CN(C(=O)Nc1cc(C(F)(F)F)cc(OCC(F)(F)F)n1)c1ccc(Br)cc1` [Compound 167]: 50% and 100%.
For `CN(C(=O)Nc1nc(OCC(F)(F)F)nc(OCC(F)(F)F)n1)c1ccc(C(F)(F)F)cc1` [Compound 118, N′-[4,6-bis(2,2,2-trifluoroethoxy)-1,3,5-triazin-2-yl]-N-(4-trifluoromethylphenyl)-N-methylurea], the mortality at 50 µg/cm2 in assay [1] (setting [3]) and in assay [2] (setting [3]) was 100% in each case.
For `O=C(Nc1ccc(Br)c(F)c1)Nc1nc(OCC(F)(F)F)cc(OCC(F)(F)F)n1` [Compound 72], the values for the mortality at 50 µg/cm2 in assay [1] (setting [3]) and in assay [2] (setting [3]) were 0% and 100%, respectively.
Take `CN(C(=O)Nc1nc(OCC(F)(F)F)nc(OCC(F)(F)F)n1)c1ccc(OC(F)(F)C(F)F)cc1` [Compound 120]: the mortality at 50 µg/cm2 in assay [1] (setting [3]) and in assay [2] (setting [3]) was 100% throughout.
For the compound `CN(C(=O)Nc1cc(C(F)(F)F)cc(OCC(F)(F)F)n1)c1ccc(C(F)(F)F)nc1` [Compound 170], the mortality at 50 µg/cm2 is 75% in assay [1] (setting [3]) and 100% in assay [2] (setting [3]).
As for `N#Cc1ccc(NC(=O)Nc2nc(OCC(F)(F)F)cc(OCC(F)(F)F)n2)cc1Cl` [Compound 55], the mortality at 50 µg/cm2 in assay [1] was 0%; in assay [2] it was 100%.
With `Cc1cc(Br)ccc1N(C)C(=O)Nc1nc(OCC(F)(F)F)cc(OCC(F)(F)F)n1` [Compound 158], the mortality at 50 µg/cm2 in assay [1] (setting [3]) and in assay [2] (setting [3]) was 100% throughout.
In the case of `COCCN(C(=O)Nc1nc(OCC(F)(F)F)cc(OCC(F)(F)F)n1)c1ccc(OC(F)(F)F)cc1` [Compound 50], the mortality at 50 µg/cm2 in assay [1] (setting [3]) and in assay [2] (setting [3]) was 100% throughout.
In the case of `CN(C(=O)Nc1nc(OCC(F)(F)F)cc(OCC(F)(F)F)n1)c1ccc(OC(F)(F)F)cc1` [Compound 7, N′-[4,6-bis(2,2,2-trifluoroethoxy)pyrimidin-2-yl]-N-methyl-N-[4-(trifluoromethoxy)phenyl]urea], the mortality at 50 µg/cm2 in assay [1] (setting [3]) and in assay [2] (setting [3]) was 100% throughout.
With `CN(C(=O)Nc1ccc(OC(F)(F)F)cc1)c1nc(OCC(F)(F)F)cc(OCC(F)(F)F)n1` [Compound 10], the mortality at 50 µg/cm2 in assay [1] (setting [3]) worked out at 100%; in assay [2] (setting [3]) it was 0%.
The matching figures for `CN(C(=O)Nc1nc(OCC(F)(F)F)cc(OCC(F)(F)F)n1)c1c(F)cccc1F` [Compound 159]: 100% and 0%.
On to `CN(C(=O)Nc1nc(OCC(F)(F)F)cc(OCC(F)(F)F)n1)c1ccc(I)cc1` [Compound 81], for which the mortality at 50 µg/cm2 in assay [1] (setting [3]) and in assay [2] (setting [3]) was 100% each time.
In the case of `CN(C)CCN(C(=O)Nc1nc(OCC(F)(F)F)cc(OCC(F)(F)F)n1)c1ccc(OC(F)(F)F)cc1` [Compound 70], the mortality at 50 µg/cm2 in assay [1] (setting [3]) and in assay [2] (setting [3]) was 100% throughout.
With `CCN(C(=O)Nc1nc(OCC(F)(F)F)cc(OCC(F)(F)F)n1)c1ccc(Br)cc1` [Compound 40], the mortality at 50 µg/cm2 in assay [1] (setting [3]) and in assay [2] (setting [3]) was 100% in each case.
Turning to `O=C(Nc1ccc(Br)cc1)Nc1nc(OCC(F)(F)F)c(Cl)c(OCC(F)(F)F)n1` [Compound 137], the mortality at 50 µg/cm2 was 88% in assay [1] (setting [3]) and 100% in assay [2] (setting [3]).
The matching figures for `O=C(Nc1ccc([N+](=O)[O-])cc1)Nc1nc(OCC(F)(F)F)cc(OCC(F)(F)F)n1` [Compound 56]: 0% and 100%.
As for `CCN(C(=O)Nc1nc(OCC(F)(F)F)cc(OCC(F)(F)F)n1)c1ccc(OC(F)(F)F)cc1` [Compound 27], the mortality at 50 µg/cm2 in assay [1] (setting [3]) and in assay [2] (setting [3]) was 100% in each case.
Take `CC(C)OCN(C(=O)N(COCc1ccccc1)c1nc(OCC(F)(F)F)cc(OCC(F)(F)F)n1)c1ccc(Br)cc1` [Compound 66]: the mortality at 50 µg/cm2 in assay [1] (setting [3]) and in assay [2] (setting [3]) was 100% each time.
As for `O=C(Nc1ccc(C(F)(F)F)cc1)Nc1nc(OCC(F)(F)F)cc(OCC(F)(F)F)n1` [Compound 1, N′-[4,6-bis(2,2,2-trifluoroethoxy)pyrimidin-2-yl]-N-[4-(trifluoro-methyl)phenyl]urea], the mortality at 50 µg/cm2 in assay [1] (setting [3]) and in assay [2] (setting [3]) was 100% each time.
Take `O=C(Nc1ccc(Br)cc1)Nc1nc(OCC(F)(F)F)nc(OCC(F)(F)F)n1` [Compound 117]: the mortality at 50 µg/cm2 was 100% in assay [1] (setting [3]) and 0% in assay [2] (setting [3]).
